Assay: Visible absorption of salt-forming type dyes (λmax)
Assay type: physicochemical
Settings: spectra of dyes 1 and 4 in methanol solvent
Method: A structure of the dye is shown in the following formula, and hue and maximum absorption wavelength (λmax) are shown in Table. 1.
A structure of each salt-forming type dye is shown in the following formula, respectively. 1. [drawing 5]
Rhodamine 6 GCP (C.I. Basic Red) (140 parts, 0.3 mols) as a cation component was dissolved in water with stirring to prepare a 3% aqueous solution, which was then filtered. Thereafter, this solution (pH 2 to 4) was added dropwise to the dyestuff solution over 50 minutes, followed by stirring at 40° to 50° C. for 3 hours. The solution was heated to 65° C. to form a grit, followed by filtration, rinsing and further drying to obtain 200 parts of a powdered red salt-forming type dye (dye 4) having a structure of the following formula. It was confirmed that the resulting dye is a salt-forming type dye having n (2<n<3). 1. [drawing 6]
It was confirmed that the resulting dye has a structure of the following formula. 1. [drawing 7]
It was confirmed that the resulting dye has a structure of the following formula. 1. [drawing 8]

**Q.** With `Cc1nn(-c2ccccc2)c(O)c1N=Nc1ccc(-c2ccc(N=Nc3c(C)nn(-c4ccccc4)c3O)cc2S(=O)(=O)O)c(S(=O)(=O)O)c1` [dye 9] as the molecule, how does the “Salt-forming type dye λmax (maximum absorption wavelength)” value (“Salt-forming type dye λmax” for short) (listed as Comp. Ex. 3) read?
**A.** Its value is 525 nm.

**Q.** With `Cc1nn(-c2ccccc2)c(O)c1N=Nc1ccc(-c2ccc(N=Nc3c(C)nn(-c4ccccc4)c3O)cc2S(=O)(=O)O)c(S(=O)(=O)O)c1` [dye 7] as the molecule, how does the “Salt-forming type dye λmax” value (listed as Comp. Ex. 1) read?
**A.** The value was 422 nm.

**Q.** With `Cc1nn(-c2ccccc2)c(O)c1N=Nc1ccc(-c2ccc(N=Nc3c(C)nn(-c4ccccc4)c3O)cc2S(=O)(=O)O)c(S(=O)(=O)O)c1` [dye 8] as the molecule, how does the “Salt-forming type dye λmax” value (listed as Comp. Ex. 2) read?
**A.** The value was 422 nm.

**Q.** With `Cc1nn(-c2ccccc2)c(O)c1N=Nc1ccc(-c2ccc(N=Nc3c(C)nn(-c4ccccc4)c3O)cc2S(=O)(=O)O)c(S(=O)(=O)O)c1` [dye 10] as the molecule, how does the “Salt-forming type dye λmax” value (listed as Comp. Ex. 4) read?
**A.** Its value is 578 nm.

— US5281264A, “Salt-forming type dye and ink composition” (Orient Chemical Industries, Ltd., priority 1992, dated 1994)
